Data taken from EP4703359A1 (Shanghai Simr Biotechnology Co., Ltd., priority 2023, dated 2024).
Where two headings read alike, the source gives them in different places.

What was measured:
α2-GABAA receptor [1] = target: T1, α2-GABAA receptor (Homo sapiens, UniProt P18507+P47869); assay: Radioactive ligand (3H-flunitrazepam) competitive binding assay, BZD site of membrane proteins of α2-GABAAR-HEK293 cells
T1 construct: expressed in transfected cells
Excerpt: The α subunit, β subunit, and γ subunit are indispensable for forming a fully functional GABAA receptor. In this example, HEK293 cells stably expressing α2-GABAA receptors (α2-GABAAR) were constructed and screened respectively via liposome transfection (Felgner, P.L., et al. Proceedings of the National Academy of Sciences, 1987, 84: 7413-7417). The α2-GABAAR-HEK293 cell model co-expresses the α2 subunit (protein sequence referenced under GenBank accession number: NM_000807.4), β3 subunit (protein sequence referenced under GenBank accession number: NM_000814.5), and γ2 subunit (protein sequence referenced under GenBank accession number: NM_000816.3).
The above cell lines were subcultured. α2-GABAAR-HEK293 cells were amplified for testing the affinity of compounds to the benzodiazepine (BZD) site of GABAA receptors. Some of the α2-GABAAR-HEK293 cells in suspension during subculturing were plated on glass slides pre-treated with Poly-D-Lysine for electrophysiological testing (method reference: Patent CN 107344936 A, paragraph 0586).
The affinity of the compound for the α2-GABAA receptor was determined by competing with ^3H-flunitrazepam (isotope ^3H-labeled flunitrazepam) for binding to the BZD site of membrane proteins in HEK293 cells stably expressing human α2-GABAAR.
Membrane preparation: Cells were suspended in 50 mM Tris-HCl buffer (pH=7.4), homogenized on ice using a homogenizer for 20 seconds with 10 repetitions, and centrifuged at 4°C, 1000g for 10 minutes. The supernatant was collected, and the above steps were repeated. The supernatant was centrifuged at 4°C (33,800 × g; Thermo, rotor: A27-8x50) for 60 minutes, and the pellet was resuspended in Tris buffer (50 mM Tris-HCl, 10 mM MgCl2, 0.5 mM EDTA, 10% glycerol). The protein concentration was determined using the bicinchoninic acid (BCA) protein assay based on the copper ion reduction method (BCA kit purchased from Pierce (Annoron)). Aliquots of 1 mL were prepared and stored at -80°C.
Radioactive ligand competitive binding assay: This assay was conducted in a 200 µL system (96-well plate), containing 100 µL of cell membrane. The concentration of ^3H-flunitrazepam was 1 nM, and the concentration of the test compound ranged from […]. Flumazenil was used as a control. The low signal control well (Low Control, LC) was added with 1 µL of 2 mM flumazenil (final concentration 10 µM), while the high signal control well (High Control, HC) was added with 1 µL of dimethyl sulfoxide. The final concentration of the target membrane protein was 5 µg/well. All test compound stock solutions were prepared as 10 mM solutions in dimethyl sulfoxide. The working concentration of the samples was prepared by diluting all samples to 0.2 mM with dimethyl sulfoxide, followed by a 4-fold serial dilution to obtain a total of 8 concentration gradients. The 96-well plate was sealed with sealing film and then incubated on a shaker at room temperature for 1 hour. The GF/C filter plate was also soaked with a soaking buffer (0.3% PEI (polyethyleneimine, purchased from: Sigma-Aldrich, model: P314), stored at 4°C) for at least 0.5 hours. After the incubation was completed, the mixture was collected onto a GF/C filter plate using a cell harvester and washed four times with wash buffer (50 mM Tris-HCl, pH 7.4, stored at 4°C). After drying in a 50°C oven for 1 hour, the dried GF/C filter plate was sealed at the bottom with a film. The residual radioactivity on the filter membrane was detected using liquid scintillation counting. Each well was filled with 50 µL of scintillation fluid and sealed. Readings were taken using a Microbeta^2 (microplate counter, purchased from PerkinElmer, model: CNLL0153). The inhibitory activity of the test sample on the binding of ^3H-flunitrazepam to GABAA receptor membrane protein was calculated. […]

α2-GABAA receptor [2] = target: T1, α2-GABAA receptor; assay: Whole-cell patch-clamp electrophysiology, positive allosteric modulatory activity in α2-GABAAR-HEK293 cells; format: cell-based; details: compound 100 nM, GABA 0.10 to 0.11 µM (approximately EC7-8), normalized to reference compound CVL-865 (= 100%); for Emax at 0.1 µM: read-out: α2-GABAAR Positive allosteric modulatory activity
How it was run: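 HEK293 cells stably co-expressing α2β3γ2 GABAA receptor, whole-cell patch clamp at -60 mV. Compounds at 100 nM final applied with GABA 0.10–0.11 µM (~EC7-8) after GABA-only current stabilized. […]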

[3] = competition with 1 nM 3H-flunitrazepam; HEK293 membranes expressing α2, β3, γ2 subunits; Ki calculated from IC50; read-out: α2 Ki

Compound | Ki (α2-GABAA receptor [1]; [3]) [nM] | Emax at 0.1 µM (α2-GABAA receptor [2]) [%] | Ki (α2-GABAA receptor [1]; read-out: α2 Ki; competition with 1 nM 3H-flunitrazepam; HEK293 membranes expressing α2, β3, γ2 subunits; Ki calculated from IC50) [nM] | α2-GABAAR Positive allosteric modulatory activity (α2-GABAA receptor [2]) [%]
CCCNC(=O)c1nc2c(Oc3cc(F)ccc3OC)cccn2c1N [Example 144, 3-Amino-8-(5-fluoro-2-methoxyphenoxy)-N-propylimidazo[1,2-a]pyridine-2-carboxamide] | 4.97 | 95 |  | 
CCCNC(=O)c1nc2c(-c3cccc(C)c3)cccn2c1N [Example 48, 3-Amino-N-propyl-8-(3-methylphenyl)imidazo[1,2-a]pyridine-2-carboxamide] | 14.2 | 71 |  | 
CCCNC(=O)c1nc2c(-c3ccc(F)cc3OC)cccn2c1N [Example 53, 3-Amino-8-(4-fluoro-2-methoxyphenyl)-N-propylimidazo[1,2-a]pyridine-2-carboxamide] | 57 | 92 |  | 
CCCNC(=O)c1nc2c(-c3cc(C(F)(F)F)ccc3OC)cccn2c1N [Example 58, 3-Amino-8-(2-methoxy-5-(trifluoromethyl)phenyl)-N-propylimidazo[1,2-a]pyridine-2-carboxamide] | 34.5 | 103 |  | 
CCCNC(=O)c1nc2c(-c3cccc(OC)c3F)cccn2c1N [Example 63, 3-Amino-8-(2-fluoro-3-methoxyphenyl)-N-propylimidazo[1,2-a]pyridine-2-carboxamide] | 10.2 | 71 |  | 
[2H]c1ccc(OC)c(-c2cccn3c(N)c(C(=O)NCCC)nc23)c1F [Example 136, 3-Amino-8-(2-fluoro-6-methoxyphenyl-3-d)-N-propylimidazo[1,2-a]pyridine-2-carboxamide] | 17.6 | 91 |  | 
COc1cccc(F)c1-c1cccn2c(N)c(C(=O)NCCCF)nc12 [Example 27, 3-Amino-8-(2-fluoro-6-methoxyphenyl)-N-(3-fluoropropyl)imidazo[1,2-a]pyridine-2-carboxamide] | 32 | 84 |  | 
COc1cccc(F)c1-c1cccn2c(N)c(C(=O)NC3CCCC3)nc12 [Example 12, 3-Amino-N-cyclopentyl-8-(2-fluoro-6-methoxyphenyl)imidazo[1,2-a]pyridine-2-carboxamide] | 34.1 | 32 |  | 
CCCNC(=O)c1nc2c(-c3c(F)cccc3OC)c(F)ccn2c1N [Example 122, 3-Amino-7-fluoro-8-(2-fluoro-6-methoxyphenyl)-N-propylimidazo[1,2-a]pyridine-2-carboxamide] | 11.4 | 105 |  | 
COc1cccc(F)c1-c1cccn2c(N)c(C(=O)NC3CC(F)(F)C3)nc12 [Example 9, 3-Amino-N-(3,3-difluorocyclobutyl)-8-(2-fluoro-6-methoxyphenyl)imidazo[1,2-a]pyridine-2-carboxamide] | 93 | 52 |  | 
CCCNC(=O)c1nc2c(-c3cc(-c4cnnc5c4ncn5CC)ccc3OC)cccn2c1N [Example 71, 3-Amino-8-(5-(7-ethyl-7H-imidazo[4,5-c]pyridazin-4-yl)-2-methoxyphenyl)-N-propylimidazo[1,2-a]pyridine-2-carboxamide] | 7.43 | 130 |  | 
COc1cccc(F)c1-c1cccn2c(N)c(C(=O)NC3CCC3)nc12 [Example 7, 3-Amino-8-(2-fluoro-6-methoxyphenyl)-N-cyclobutylimidazo[1,2-a]pyridine-2-carboxamide] | 14.9 | 52 |  | 
COc1ccc(C#N)cc1-c1cccn2c(N)c(C(=O)NC3CC(C)C3)nc12 (stereo not shown) [Example 34, 3-Amino-8-(5-cyano-2-methoxyphenyl)-N-(3-methylcyclobutyl)imidazo[1,2-a]pyridine-2-carboxamide] | 5.07 | 101 |  | 
COc1cccc(F)c1-c1cccn2c(N)c(C(=O)Nc3ccccc3)nc12 [Example 13, 3-Amino-8-(2-fluoro-6-methoxyphenyl)-N-phenylimidazo[1,2-a]pyridine-2-carboxamide] | 44 | 107 |  | 
CCCNC(=O)c1nc2c(-c3cc(F)cnc3OC)cccn2c1N [Example 84, 3-Amino-8-(5-fluoro-2-methoxypyridin-3-yl)-N-propylimidazo[1,2-a]pyridine-2-carboxamide] | 42 | 133 |  | 
COc1ccc(F)c(F)c1-c1cccn2c(N)c(C(=O)NC3CC(C)C3)nc12 (stereo not shown) [Example 32, 3-Amino-8-(2,3-difluoro-6-methoxyphenyl)-N-(3-methylcyclobutyl)imidazo[1,2-a]pyridine-2-carboxamide] | 7.33 | 50 |  | 
[2H]c1ccc(F)c(-c2cccn3c(N)c(C(=O)NCCC)nc23)c1OC [Example 137, 3-Amino-8-(2-fluoro-6-methoxyphenyl-5-d)-N-propylimidazo[1,2-a]pyridine-2-carboxamide] | 13.5 | 97 |  | 
CCCNC(=O)c1nc2c(-c3cc(F)ccc3OC)cccn2c1N [Example 51] |  |  | 26 | 121
CCCNC(=O)c1nc2c(-c3cccc(CC#N)c3)cccn2c1N [Example 36, 3-amino-8-(3-(cyanomethyl)phenyl)-N-propylimidazo[1,2-a]pyridine-2-carboxamide] | 21.2 | 181 |  | 
CCCNC(=O)c1nc2c(-c3cccc(CCC#N)c3)cccn2c1N [Example 37, 3-Amino-8-(3-(2-cyanoethyl)phenyl)-N-propylimidazo[1,2-a]pyridine-2-carboxamide] | 33.6 | 105 |  | 
CCCNC(=O)c1nc2c(-c3cc(C)cnc3OC)cccn2c1N [Example 83, 3-Amino-8-(2-methoxy-5-methylpyridin-3-yl)-N-propylimidazo[1,2-a]pyridine-2-carboxamide] | 5.9 | 164 |  | 
COc1cccc(F)c1-c1cccn2c(N)c(C(=O)NC3CC3)nc12 [Example 5, 3-Amino-8-(2-fluoro-6-methoxyphenyl)-N-cyclopropylimidazo[1,2-a]pyridine-2-carboxamide] | 39 | 65 |  | 
COc1ccc(C)cc1-c1cccn2c(N)c(C(=O)NC3CC(C)C3)nc12 (stereo not shown) [Example 33, 3-Amino-8-(2-methoxy-5-methylphenyl)-N-(3-methylcyclobutyl)imidazo[1,2-a]pyridine-2-carboxamide] | 15.5 | 155 |  | 
CCCNC(=O)c1nc2c(-c3cc(C)ccc3OC)cccn2c1N [Example 49, 3-Amino-8-(2-methoxy-5-methylphenyl)-N-propylimidazo[1,2-a]pyridine-2-carboxamide] | 19.2 | 156 |  | 
CCCNC(=O)c1nc2c(-c3cc(C(F)F)ccc3OC)cccn2c1N [Example 67, 3-Amino-8-(5-(difluoromethyl)-2-methoxyphenyl)-N-propylimidazo[1,2-a]pyridine-2-carboxamide] | 15 | 138 |  | 
CCCNC(=O)c1nc2c(-c3cnccc3OC)cccn2c1N [Example 85, 3-Amino-8-(4-methoxypyridin-3-yl)-N-propylimidazo[1,2-a]pyridine-2-carboxamide] | 17.2 | 100 |  | 
